Reference: patent publication US20230321067A1, “DOSING REGIMEN COMPRISING 3-(1-OXOISOINDOLIN-2-YL)PIPERIDINE-2,6-DIONE DERIVATIVES” (Novartis AG, priority 2020, published 2023)
“Also recorded” adds a separate entry of the source. Like-named read-outs stand apart in the source and are kept apart here.

Tests used:
[1] = Repeated daily oral dose PK in cynomolgus monkey; format: in vivo; conditions: unbound; for Cmax / AUC(0-t): plasma, po; for AUC(0-t): read-out: AUC0-24
Experimental: The PK/PD relationship of I-57 was further examined in cynomolgus monkeys after repeated daily oral doses of 0.1 and 3 mg/kg. In this study, a cohort of animals were initially immunized with an antigen-adjuvant mixture (KLH/Squalene). The experiment was designed to assess the effect of I-57 exposure, and the resulting IKZF2 degradation, on immune response during immunization to test the hypothesis that IKZF2 degradation would result in increased proliferation of stimulated T-cells. In the experiment, daily I-57 oral treatment was initiated 5 days after immunization. An immunization booster dose was administered on day 15. I-57 plasma concentration and IKZF2 expression (as determined by flow cytometry) in FOXP3+ T cells from PBMCs were determined (FIG. 9A and FIG. 9B).

CYP2C9 = CYP2C9 (Homo sapiens, UniProt P11712); assay: Time-dependent CYP inhibition: CYP2C9; format: in vitro ADME; conditions: I-57 concentrations of up to 100 μM
Sequence of CYP2C9 (P11712 whole entry): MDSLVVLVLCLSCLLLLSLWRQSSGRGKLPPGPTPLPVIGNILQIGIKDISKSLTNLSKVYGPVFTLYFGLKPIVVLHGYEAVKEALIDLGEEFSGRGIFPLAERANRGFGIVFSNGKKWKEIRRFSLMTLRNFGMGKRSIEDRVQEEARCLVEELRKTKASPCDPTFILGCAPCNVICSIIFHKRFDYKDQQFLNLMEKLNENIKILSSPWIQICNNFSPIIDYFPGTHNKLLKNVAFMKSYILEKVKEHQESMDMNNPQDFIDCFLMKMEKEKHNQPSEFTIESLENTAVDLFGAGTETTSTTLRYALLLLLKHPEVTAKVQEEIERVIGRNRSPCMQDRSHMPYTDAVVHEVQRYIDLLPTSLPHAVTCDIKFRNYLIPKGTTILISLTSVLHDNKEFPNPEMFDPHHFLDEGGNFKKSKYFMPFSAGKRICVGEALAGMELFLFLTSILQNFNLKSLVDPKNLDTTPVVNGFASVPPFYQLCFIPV

IKZF4 = target: T1, IKZF4 (Homo sapiens, UniProt Q96SW2+Q9H2S9); assay: IKZF4 degradation in vitro (FIG. 1); format: cell-based; conditions: relative to IKZF2
T1 construct: prolabel (ProLabel enzyme-fragment tag); expressed in transfected cells; host or cells: HEK293T
T1 sequence (Q9H2S9 whole entry, the tested form may be a part): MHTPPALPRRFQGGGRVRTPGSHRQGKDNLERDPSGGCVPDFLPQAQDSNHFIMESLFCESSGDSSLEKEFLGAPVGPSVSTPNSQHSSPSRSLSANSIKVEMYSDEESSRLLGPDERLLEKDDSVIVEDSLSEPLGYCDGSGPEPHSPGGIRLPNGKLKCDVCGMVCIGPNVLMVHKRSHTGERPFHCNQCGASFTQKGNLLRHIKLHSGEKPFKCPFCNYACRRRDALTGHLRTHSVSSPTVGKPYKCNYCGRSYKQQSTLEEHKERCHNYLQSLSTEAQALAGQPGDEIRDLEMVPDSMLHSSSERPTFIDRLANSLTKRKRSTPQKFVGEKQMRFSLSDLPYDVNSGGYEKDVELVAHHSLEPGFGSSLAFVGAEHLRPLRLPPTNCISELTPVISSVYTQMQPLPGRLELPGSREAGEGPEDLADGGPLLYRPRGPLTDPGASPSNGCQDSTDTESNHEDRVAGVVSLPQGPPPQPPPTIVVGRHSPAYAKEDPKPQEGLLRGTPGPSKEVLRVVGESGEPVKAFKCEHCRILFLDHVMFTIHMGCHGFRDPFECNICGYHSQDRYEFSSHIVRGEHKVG
T1 sequence (Q96SW2 whole entry, the tested form may be a part): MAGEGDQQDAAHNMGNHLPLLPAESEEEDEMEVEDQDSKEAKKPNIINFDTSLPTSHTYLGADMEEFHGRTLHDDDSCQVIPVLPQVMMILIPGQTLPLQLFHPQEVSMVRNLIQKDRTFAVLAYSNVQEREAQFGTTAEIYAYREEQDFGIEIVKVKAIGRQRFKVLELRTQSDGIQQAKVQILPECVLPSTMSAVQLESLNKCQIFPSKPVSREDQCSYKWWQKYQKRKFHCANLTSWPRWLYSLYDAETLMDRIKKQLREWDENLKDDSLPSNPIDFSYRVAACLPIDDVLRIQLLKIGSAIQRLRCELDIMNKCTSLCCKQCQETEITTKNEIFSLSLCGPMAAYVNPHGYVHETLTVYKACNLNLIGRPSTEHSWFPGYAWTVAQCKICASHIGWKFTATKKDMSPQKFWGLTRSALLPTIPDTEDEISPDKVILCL
T1 sequence (Q16531 whole entry partner, the tested form may be a part): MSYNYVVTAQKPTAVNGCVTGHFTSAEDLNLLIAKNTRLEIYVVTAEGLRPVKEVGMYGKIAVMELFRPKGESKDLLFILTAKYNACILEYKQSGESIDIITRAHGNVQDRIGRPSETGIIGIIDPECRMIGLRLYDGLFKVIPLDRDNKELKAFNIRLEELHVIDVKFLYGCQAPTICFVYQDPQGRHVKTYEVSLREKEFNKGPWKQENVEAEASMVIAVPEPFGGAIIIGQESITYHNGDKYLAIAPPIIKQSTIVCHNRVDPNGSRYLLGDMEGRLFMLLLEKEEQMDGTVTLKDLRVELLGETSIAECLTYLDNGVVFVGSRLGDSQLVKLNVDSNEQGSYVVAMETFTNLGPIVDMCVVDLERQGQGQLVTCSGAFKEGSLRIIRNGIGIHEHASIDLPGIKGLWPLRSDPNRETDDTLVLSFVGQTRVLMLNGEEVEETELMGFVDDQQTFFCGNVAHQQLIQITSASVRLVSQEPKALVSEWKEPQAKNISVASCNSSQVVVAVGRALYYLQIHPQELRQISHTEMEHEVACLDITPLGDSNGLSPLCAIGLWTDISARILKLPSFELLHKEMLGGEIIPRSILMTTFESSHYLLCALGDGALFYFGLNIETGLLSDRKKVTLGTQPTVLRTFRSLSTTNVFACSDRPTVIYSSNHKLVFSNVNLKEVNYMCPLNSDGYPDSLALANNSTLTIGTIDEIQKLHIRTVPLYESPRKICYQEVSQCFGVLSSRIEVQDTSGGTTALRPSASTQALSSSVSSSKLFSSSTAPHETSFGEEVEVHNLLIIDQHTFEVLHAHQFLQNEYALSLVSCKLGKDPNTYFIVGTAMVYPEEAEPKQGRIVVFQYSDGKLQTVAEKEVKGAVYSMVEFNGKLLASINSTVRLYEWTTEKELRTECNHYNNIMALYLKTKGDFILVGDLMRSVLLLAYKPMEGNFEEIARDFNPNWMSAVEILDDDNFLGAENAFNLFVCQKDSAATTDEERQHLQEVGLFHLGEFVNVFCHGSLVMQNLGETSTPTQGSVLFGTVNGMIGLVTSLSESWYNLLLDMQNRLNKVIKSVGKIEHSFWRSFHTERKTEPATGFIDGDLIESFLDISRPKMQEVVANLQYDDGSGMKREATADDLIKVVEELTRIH
From the text: (§1) Although the specific transcriptional targets of IKZF2 remain to be defined, IKZF2 binds to and represses transcription from the IL-2 promoter region (Baine 2013). […] Finally, an in vitro assay recapitulating hallmarks of T cell dysfunction/exhaustion, by sequential TCR stimulation of isolated primary human T cells, was used to test the hypothesis that […] would rescue the exhausted phenotype and enhance Teff cell activity. […] In addition to IKZF1, other known cereblon substrates including translation termination factor G1 to S phase transition 1 (GSPT1) are not degraded by I-57 (FIG. 1).

peripheral T cells = assay: Proliferation of peripheral T cells (Ki67 staining) in immunized cynomolgus monkeys (FIG. 9B); format: in vivo, cynomolgus monkey; conditions: 3 mg/kg daily, recall response phase, compared to immunization alone
Experimental: FIG. 9B. is a graph showing proliferation of peripheral T cells (Mean+/−SEM, % of predose) upon treatment with 0.1 and 3 mg/kg of Compound I-57 in cynomolgus monkeys.

GSPT1 = target: T2, GSPT1 (Homo sapiens, UniProt P15170); assay: GSPT1 degradation in vitro (FIG. 1); format: cell-based
T2 construct: prolabel (ProLabel enzyme-fragment tag); expressed in transfected cells; host or cells: HEK293T
T2 sequence (Q96SW2 whole entry partner, the tested form may be a part): as the sequence (Q96SW2 whole entry, the tested form may be a part) above
T2 sequence (Q16531 whole entry partner, the tested form may be a part): as the sequence (Q16531 whole entry partner, the tested form may be a part) above
T2 sequence (P15170 whole entry, the tested form may be a part): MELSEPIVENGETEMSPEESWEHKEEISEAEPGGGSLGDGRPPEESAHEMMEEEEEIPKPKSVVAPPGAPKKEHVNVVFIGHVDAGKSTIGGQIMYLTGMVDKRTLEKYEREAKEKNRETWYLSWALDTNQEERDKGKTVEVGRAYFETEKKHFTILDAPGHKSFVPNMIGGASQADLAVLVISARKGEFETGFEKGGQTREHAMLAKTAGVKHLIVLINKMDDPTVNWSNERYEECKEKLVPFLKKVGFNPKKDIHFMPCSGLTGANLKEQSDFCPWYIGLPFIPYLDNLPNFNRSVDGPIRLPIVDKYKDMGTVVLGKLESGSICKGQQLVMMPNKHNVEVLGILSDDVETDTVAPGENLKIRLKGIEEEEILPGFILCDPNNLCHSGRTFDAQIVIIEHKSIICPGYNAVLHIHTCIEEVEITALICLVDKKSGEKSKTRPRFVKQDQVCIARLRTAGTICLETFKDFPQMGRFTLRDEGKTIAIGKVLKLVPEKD
From the text: as §1

CYP3A4 = CYP3A4 (Homo sapiens, UniProt P08684); assay: Enzyme phenotyping with human recombinant CYPs; format: in vitro ADME; conditions: human recombinant CYPs in vitro; preliminary assessment
Sequence of CYP3A4 (P08684 whole entry): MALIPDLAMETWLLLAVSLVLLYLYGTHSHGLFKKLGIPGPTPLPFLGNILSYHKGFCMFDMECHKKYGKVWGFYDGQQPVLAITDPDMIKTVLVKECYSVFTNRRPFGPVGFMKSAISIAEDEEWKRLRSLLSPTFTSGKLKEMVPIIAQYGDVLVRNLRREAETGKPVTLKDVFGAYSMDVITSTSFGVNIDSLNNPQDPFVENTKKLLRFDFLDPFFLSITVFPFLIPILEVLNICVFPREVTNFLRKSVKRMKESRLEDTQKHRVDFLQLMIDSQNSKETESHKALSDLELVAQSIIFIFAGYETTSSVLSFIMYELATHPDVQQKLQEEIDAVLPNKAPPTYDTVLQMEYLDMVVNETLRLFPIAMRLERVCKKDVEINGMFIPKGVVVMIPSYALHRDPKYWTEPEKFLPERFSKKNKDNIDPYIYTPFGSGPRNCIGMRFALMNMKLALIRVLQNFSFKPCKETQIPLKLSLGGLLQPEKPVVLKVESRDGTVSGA
Experimental: In vivo in the dog, very minor amounts of the N-dealkylation product and products derived from hydrolysis of the glutarimide moiety were detected in plasma. While the contribution of CYP-mediated oxidative metabolism to systemic clearance is unknown, a preliminary assessment of the enzymes involved was conducted using human recombinant CYPs in vitro.

IKZF2 = IKZF2 degradation in primary cynomolgus monkey PBMCs; format: cell-based; conditions: primary monkey PBMCs in vitro
From the text: as §1
I-57 mediated degradation of IKZF2 was assessed in primary PBMCs obtained from rabbit, dog, pig, cynomolgus monkey, and human, and in primary splenocytes of mouse and rat. […] Species-specificity due to species specific alteration CRBN primary structure have previously been described with other compounds known to interact with the CRBN ubiquitin ligase complex to elicit protein specific degradation (Krönke et al, 2015).

[2] = In vivo non-clinical PK, dog
Experimental: The in vivo non-clinical PK profile of I-57 was investigated in mouse, rat, dog and cynomolgus monkey using I-57 free base. […] After p.o. administration, the absorption of I-57 was rapid with peak blood concentration (Tmax) occurring between 1 and 4 hours. […] In high dose PK and toxicology studies with I-57 the exposures in mouse, rat and monkey increased with dose.
(§2) The binding to plasma protein of I-57 in vitro was moderate in all species, with an observed difference between rodents (73% in mouse, 76% in rat) and non-rodents (52% in dog and monkey, 54% in human). Blood-to-plasma ratios were in the range of 0.7-1.8 (human 1.1-1.3). […] Based on results with non-radiolabeled I-57 in the dog, a significant amount of unchanged I-57 was renally eliminated (˜20% of dose).

CYP1A2 = CYP1A2 (Homo sapiens, UniProt P05177); assay: Time-dependent CYP inhibition: CYP1A2; format: in vitro ADME; conditions: I-57 concentrations of up to 100 μM
Sequence of CYP1A2 (P05177 whole entry): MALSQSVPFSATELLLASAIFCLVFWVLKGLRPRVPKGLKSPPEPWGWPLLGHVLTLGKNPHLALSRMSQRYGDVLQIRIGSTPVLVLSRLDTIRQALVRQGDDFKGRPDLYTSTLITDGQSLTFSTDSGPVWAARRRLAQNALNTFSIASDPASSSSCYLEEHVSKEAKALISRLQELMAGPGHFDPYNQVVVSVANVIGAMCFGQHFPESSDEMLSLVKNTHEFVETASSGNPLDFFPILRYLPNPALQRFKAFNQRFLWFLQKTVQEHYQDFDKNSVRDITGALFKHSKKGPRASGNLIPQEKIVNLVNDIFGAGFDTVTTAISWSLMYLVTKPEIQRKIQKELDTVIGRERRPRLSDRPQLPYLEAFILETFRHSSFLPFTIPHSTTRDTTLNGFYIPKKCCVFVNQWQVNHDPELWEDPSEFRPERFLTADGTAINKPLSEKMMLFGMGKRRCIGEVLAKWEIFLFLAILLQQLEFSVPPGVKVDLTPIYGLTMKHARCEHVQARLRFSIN

[3] = Repeated oral dose PK in MDA-MB231 xenograft human PBMC adoptive transfer model; format: in vivo, NSG mice; conditions: hPBMC AdT mouse
Experimental: The PK/PD relationship of I-57 was examined in the hPBMC AdT model system. Human PBMCs were adoptively transferred into female NSG mice harboring established MDA-MB231 xenografts (FIG. 6). This model was selected based on the observation that IKZF2 positive Tregs (CD4+FOXP3+) were readily identifiable in peripheral blood and infiltrated in the tumor xenografts.
Mice were administered I-57 daily for 14 consecutive days at the doses shown. Longitudinal I-57 plasma concentrations were assessed (Table 14).

plasma protein = assay: Plasma protein binding in vitro, rat; format: in vitro ADME
From the text: as §2

[4] = 0.1 mg/kg/day, Day 5, Group 2 (only I-57), 0.1 mg/kg/day oral
[5] = 0.1 mg/kg/day, Day 5, Group 4 (I-57 + KLH + adjuvant), 0.1 mg/kg/day oral
[6] = 0.1 mg/kg/day, Day 29, Group 2 (only I-57), 0.1 mg/kg/day oral
[7] = 0.1 mg/kg/day, Day 29, Group 4 (I-57 + KLH + adjuvant), 0.1 mg/kg/day oral
[8] = 3 mg/kg/day, Day 5, Group 5 (I-57 + KLH + adjuvant), 3 mg/kg/day oral
[9] = 3 mg/kg/day, Day 29, Group 5 (I-57 + KLH + adjuvant), 3 mg/kg/day oral
[10] = Day 5, Group 2 (only I-57), 0.1 mg/kg/day oral
[11] = Day 5, Group 4 (I-57 + KLH + adjuvant), 0.1 mg/kg/day oral
[12] = Day 5, Group 5 (I-57 + KLH + adjuvant), 3 mg/kg/day oral
[13] = Day 29, Group 2 (only I-57), 0.1 mg/kg/day oral
[14] = Day 29, Group 4 (I-57 + KLH + adjuvant), 0.1 mg/kg/day oral
[15] = Day 29, Group 5 (I-57 + KLH + adjuvant), 3 mg/kg/day oral
[16] = female, NSG, mouse, plasma, po, 0.3 mg/kg, unbound, post 1st dose, p.o. 0.3 mg/kg daily
[17] = female, NSG, mouse, plasma, po, 0.3 mg/kg, unbound, post 13th dose, p.o. 0.3 mg/kg daily
[18] = female, NSG, mouse, plasma, po, 1 mg/kg, unbound, post 1st dose, p.o. 1 mg/kg daily
[19] = female, NSG, mouse, plasma, po, 1 mg/kg, unbound, post 13th dose, p.o. 1 mg/kg daily
[20] = female, NSG, mouse, plasma, po, 3 mg/kg, unbound, post 1st dose, p.o. 3 mg/kg daily
[21] = female, NSG, mouse, plasma, po, 3 mg/kg, unbound, post 13th dose, p.o. 3 mg/kg daily
[22] = female, NSG, mouse, plasma, po, 30 mg/kg, unbound, post 1st dose, p.o. 30 mg/kg daily
[23] = female, NSG, mouse, plasma, po, 30 mg/kg, unbound, post 13th dose, p.o. 30 mg/kg daily

O=C1CCC(N2Cc3cc(C4CCN(Cc5ccccc5)CC4)ccc3C2=O)C(=O)N1 (centres unmarked) [Compound I-57, 3-(5-(1-benzylpiperidin-4-yl)-1-oxoisoindolin-2-yl)piperidine-2,6-dione]
Cmax [1, 4]: 7.1 ng/mL
AUC(0-t) [1, 4]: 56.8 ng·h/mL
Cmax [1, 5]: 11 ng/mL
AUC(0-t) [1, 5]: 63.5 ng·h/mL
Cmax [1, 6]: 13.1 ng/mL
AUC(0-t) [1, 6]: 78.1 ng·h/mL
Cmax [1, 7]: 18 ng/mL
AUC(0-t) [1, 7]: 96.4 ng·h/mL
Cmax [1, 8]: 523 ng/mL
AUC(0-t) [1, 8]: 2840 ng·h/mL
Cmax [1, 9]: 504 ng/mL
AUC(0-t) [1, 9]: 3460 ng·h/mL
AUC0-24/D [1, 10]: 567 (ng · h/mL)/(mg/kg)
Cmax/D [1, 10]: 71.0 (ng/mL)/(mg/kg)
AUC0-24/D [1, 11]: 634 (ng · h/mL)/(mg/kg)
Cmax/D [1, 11]: 110 (ng/mL)/(mg/kg)
AUC0-24/D [1, 12]: 946 (ng · h/mL)/(mg/kg)
Cmax/D [1, 12]: 175 (ng/mL)/(mg/kg)
AUC0-24/D [1, 13]: 782 (ng · h/mL)/(mg/kg)
Cmax/D [1, 13]: 131 (ng/mL)/(mg/kg)
AUC0-24/D [1, 14]: 965 (ng · h/mL)/(mg/kg)
Cmax/D [1, 14]: 180 (ng/mL)/(mg/kg)
AUC0-24/D [1, 15]: 1150 (ng · h/mL)/(mg/kg)
Cmax/D [1, 15]: 169 (ng/mL)/(mg/kg)
time-dependent inhibition of CYP2C9 (CYP2C9): no apparent time-dependent inhibition
degradation of IKZF4 (IKZF4): less potency than IKZF2
proportion of proliferative peripheral T cells (Ki67 staining) (peripheral T cells): increased
degradation of GSPT1 (GSPT1): not degraded
CYP enzyme mediating oxidative metabolism (CYP3A4): CYP3A4 was found to primarily mediate these reactions
degradation of IKZF2 (IKZF2): potent degradation; also recorded: Degradation was observed
bioavailability ([2]; blood, po): 91%
unchanged I-57 renally eliminated ([2]; non-radiolabeled I-57): ~20 % of dose
time-dependent inhibition of CYP1A2 (CYP1A2): no apparent time-dependent inhibition
AUC(0-inf) [3, 16]: 7.1 ng·h/mL
Cmax [3, 16]: 2.9 ng/mL
AUC(0-inf) [3, 17]: 7.5 ng·h/mL
Cmax [3, 17]: 1.1 ng/mL
AUC(0-inf) [3, 18]: 30 ng·h/mL
Cmax [3, 18]: 8.8 ng/mL
AUC(0-inf) [3, 19]: 20 ng·h/mL
Cmax at 13 days [3, 19]: 4.6 ng/mL
AUC(0-inf) [3, 20]: 157 ng·h/mL
Cmax [3, 20]: 53 ng/mL
AUC(0-inf) [3, 21]: 92 ng·h/mL
Cmax [3, 21]: 27 ng/mL
AUC(0-inf) [3, 22]: 3470 ng·h/mL
Cmax [3, 22]: 1250 ng/mL
AUC(0-inf) [3, 23]: 4270 ng·h/mL
Cmax [3, 23]: 1300 ng/mL
dose proportionality of AUC and Cmax ([3]; between 3 and 30 mg/kg): over-dose proportional increase
change in exposure by repeated dosing ([3]; daily dosing): No significant increase in exposure
dose proportionality of AUC and Cmax ([3]; from 0.3 to 3 mg/kg): dose proportional increase
binding to plasma protein (plasma protein): 76%
